# Experimental data published in article PMC4317859 (Cancer Science, 2014).
# How the values were obtained:
# [1] = tested on: NCI-N87 cells; experiment: Growth inhibition in the presence of human serum protein; assay type: cell-based; details: serum albumin or α1-acid glycoprotein vs standard medium
# [2] = Pharmacokinetics in nude mice; assay type: in vivo; details: from human plasma AUC and pharmacokinetic parameters in nude mice
# [3] = tested on: BT-474 (breast); experiment: Growth inhibition assay; assay type: cell-based; details: Homo sapiens, BT-474, 72 h, read-out: IC50, growth inhibition of cultured cells
# [4] = tested on: MDA-MB-453 (breast); experiment: Growth inhibition assay; assay type: cell-based; details: Homo sapiens, MDA-MB-453, 72 h, read-out: IC50, growth inhibition of cultured cells
# [5] = tested on: HT115 (colon); experiment: Growth inhibition assay; assay type: cell-based; details: Homo sapiens, HT115, 72 h, read-out: IC50, growth inhibition of cultured cells
# [6] = tested on: MRC-5 (lung); experiment: Growth inhibition assay; assay type: cell-based; details: Homo sapiens, MRC5, 72 h, read-out: IC50, growth inhibition of cultured cells
# [7] = tested on: BT-474 cells; experiment: Survival model, intracranial implantation; assay type: in vivo, mice; details: 200 mg/kg, oral daily
# [8] = tested on: α1-acid glycoprotein; details: cited from earlier work
# [9] = tested on: SK-BR-3 (breast); experiment: Growth inhibition assay; assay type: cell-based; details: Homo sapiens, SK-BR-3, 72 h, read-out: IC50, growth inhibition of cultured cells
# [10] = tested on: NCI-N87 (stomach); experiment: Growth inhibition assay; assay type: cell-based; details: Homo sapiens, NCI-N87, 72 h, read-out: IC50, growth inhibition of cultured cells
# [11] = tested on: MDA-MB-175VII (breast); experiment: Growth inhibition assay; assay type: cell-based; details: Homo sapiens, 72 h, read-out: IC50, growth inhibition of cultured cells
# [12] = target: serum albumin (Homo sapiens, UniProt P02768); details: cited from earlier work
# [13] = clinical dose 1200–1250 mg, once daily; cited from earlier work
# [14] = tested on: Calu-3 (lung); experiment: Growth inhibition assay; assay type: cell-based; details: Homo sapiens, Calu-3, 72 h, read-out: IC50, growth inhibition of cultured cells
# Chain of serum albumin (P02768 25-609): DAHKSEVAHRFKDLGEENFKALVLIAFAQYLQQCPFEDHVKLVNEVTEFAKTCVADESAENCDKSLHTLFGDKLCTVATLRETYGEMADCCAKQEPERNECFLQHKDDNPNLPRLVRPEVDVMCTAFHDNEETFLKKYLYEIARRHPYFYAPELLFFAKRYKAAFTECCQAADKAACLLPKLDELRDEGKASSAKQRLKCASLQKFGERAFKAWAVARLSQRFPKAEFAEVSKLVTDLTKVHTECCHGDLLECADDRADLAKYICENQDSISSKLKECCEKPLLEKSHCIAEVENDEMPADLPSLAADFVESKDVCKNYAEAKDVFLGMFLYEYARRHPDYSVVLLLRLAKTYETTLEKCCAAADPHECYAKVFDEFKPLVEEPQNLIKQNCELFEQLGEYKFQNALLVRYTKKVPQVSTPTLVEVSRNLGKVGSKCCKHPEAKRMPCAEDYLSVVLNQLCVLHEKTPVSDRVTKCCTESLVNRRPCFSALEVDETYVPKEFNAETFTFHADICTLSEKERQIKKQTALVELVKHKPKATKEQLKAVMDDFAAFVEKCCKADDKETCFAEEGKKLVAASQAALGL
compound,measurement,setting,value
"CS(=O)(=O)CCNCc1ccc(-c2ccc3ncnc(Nc4ccc(OCc5cccc(F)c5)c(Cl)c4)c3c2)o1 [Lapatinib, N-{3-chloro-4-[(3-fluorobenzyl)oxy]phenyl}-6-[5-({[2-(methylsulfonyl)ethyl]amino}methyl)-2-furyl]-4-quinazolinamine]",Elevation of IC50 by addition of serum proteins,[1],10.6–12.7 fold
same,Clinically relevant dose in mice (assumed),[2],approximately 50 mg/kg
same,IC50,[3],29.4 ± 2.2 nM
same,IC50,[4],170 ± 3 nM
same,IC50,[5],100 ± 1.5 nM
same,IC50,[6],9140 ± 643 nM
same,Survival,[7],not significant
same,Bound to α1-acid glycoprotein,[8],> 99%
same,IC50,[9],56.9 ± 5.4 nM
same,IC50,[10],36.4 ± 5.2 nM
same,IC50,[11],70.2 ± 10.2 nM
same,Bound to serum albumin,[12],> 99%
same,Human plasma AUC,[13],14300 to 36200 ng·h/mL
same,IC50,[14],510 ± 85.8 nM
